Test results: patent USRE47193E1, “Selectively substituted quinoline compounds” (EISAI R&D MANAGEMENT CO., LTD., priority 2013, dated 2019)

How the values were obtained:
mouse TLR7 = molecular target: T1, mouse TLR7 (Mus musculus, UniProt P58681); experiment: Short-term in vivo (STIV) assay: oral dosing, R848 s.c., plasma IL-6; design: female BALB/c mice (Jackson Labs, Bar Harbor, Me.) were dosed by oral gavage; tissue Jackson Labs; host or cells: living female BALB/c mice; plasma IL-6 after s.c. R848
T1 sequence (P58681 27-1050): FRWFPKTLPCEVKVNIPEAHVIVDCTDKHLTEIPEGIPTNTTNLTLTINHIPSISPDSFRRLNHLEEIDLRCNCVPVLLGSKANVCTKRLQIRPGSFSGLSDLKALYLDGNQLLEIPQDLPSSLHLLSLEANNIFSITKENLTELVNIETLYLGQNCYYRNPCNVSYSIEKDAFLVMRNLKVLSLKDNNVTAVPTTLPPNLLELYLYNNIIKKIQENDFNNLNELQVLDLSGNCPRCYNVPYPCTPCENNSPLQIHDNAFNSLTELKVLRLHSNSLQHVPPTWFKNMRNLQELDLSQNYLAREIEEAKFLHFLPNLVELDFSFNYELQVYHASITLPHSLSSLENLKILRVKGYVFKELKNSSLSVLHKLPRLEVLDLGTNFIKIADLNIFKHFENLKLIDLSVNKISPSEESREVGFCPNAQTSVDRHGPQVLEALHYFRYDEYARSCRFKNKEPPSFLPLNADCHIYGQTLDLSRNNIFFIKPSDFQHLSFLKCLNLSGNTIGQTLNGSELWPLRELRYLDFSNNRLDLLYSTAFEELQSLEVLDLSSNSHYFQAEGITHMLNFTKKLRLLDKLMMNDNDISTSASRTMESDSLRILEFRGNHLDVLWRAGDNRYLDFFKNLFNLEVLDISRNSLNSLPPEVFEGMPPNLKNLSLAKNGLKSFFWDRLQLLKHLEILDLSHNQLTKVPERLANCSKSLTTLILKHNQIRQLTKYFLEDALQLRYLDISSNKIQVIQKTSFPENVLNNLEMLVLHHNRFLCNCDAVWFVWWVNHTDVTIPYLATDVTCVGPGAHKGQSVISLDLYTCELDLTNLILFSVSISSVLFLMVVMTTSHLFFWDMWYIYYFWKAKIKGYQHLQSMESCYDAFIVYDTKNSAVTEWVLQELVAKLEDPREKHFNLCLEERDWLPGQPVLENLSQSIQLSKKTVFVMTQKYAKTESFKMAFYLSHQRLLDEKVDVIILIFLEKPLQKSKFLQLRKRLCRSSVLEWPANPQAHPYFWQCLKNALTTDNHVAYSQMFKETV
Summary of the method: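 Female BALB/c mice (6–8 weeks) dosed orally with compound in 0.5% aqueous methyl-cellulose at 33, 100 or 300 mg/kg; at various times afterwards given 15 ug R848 s.c. to stimulate TLR7. Plasma IL-6 measured by ELISA to gauge potency and duration of action.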

Mouse Splenocytes = experiment: Mouse spleen cell-based assay (R848, IL-6 ELISA); conditions: BALB/c spleen cells, 370 nM R848
Protocol: Mouse Spleen cell-based assay. Spleens were harvested from female BALB/c mice (Jackson Labs, Bar Harbor, Me.) euthanized by CO2. A single cell suspension was obtained by passing spleens through a 40 μm an nylon cell strainer. Cells were washed twice with 50 ml PBS (Mediatech, Inc., Manassas, Va.) and red blood cells were lysed in 5 ml RBC Lysis buffer (eBioscience, Inc., San Diego, Calif.) for 5 minutes at room temperature. Cells were washed twice more in PBS and finally resuspended in supplemented RPMI-1640 at 2.5×10^6 cells/ml. Cells were plated at 100 μl/well (2.5×10^5 cells/well) in 96-well tissue culture treated plates (Falcon). Serial dilutions of compounds solubilized in 100% DMSO were added in triplicate to cells to yield a final concentration of 0.1% DMSO. Cells were incubated with compound for 30 minutes at 37° C., 5% CO2 before adding 100 μl/well of 740 nM R848 (Resiquimod; GLSynthesis, Worcester, Mass.) in complete media for a final concentration of 370 nM R848. Cells were incubated for 20 hours at 37° C., 5% CO2. Culture supernatants were collected, and levels of IL-6 were assessed by standard ELISA procedure according to the manufacturer's recommended protocol (BD Biosciences, Inc., San Diego, Calif.).

Human TLR7/8 = experiment: Human PBMC cell-based assay, TLR7/8 stimulus (RNA-Ig), cytokine ELISA; conditions: primary human PBMC assay, TLR7/8 potency; ligand not given; read-out: Human PBMCs IC50
Summary of the method: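 The agonist was RNA-Ig, a U1 snRNA-derived 26-mer RNA (2.5 μM) complexed with RNA-cross-reacting anti-ssDNA mAb (1:25 or 1 ug/ml), added after 30 min compound pre-incubation (0.1% DMSO). Density-gradient PBMC from healthy donors, 2×10^5/well, were stimulated 20 h at 37 °C; cytokines quantified by ELISA.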

SMILES | % Suppression vs. Vehicle (mouse TLR7; 6 h, 11 mg/kg) | % Suppression vs. Vehicle (mouse TLR7; 6 h, 33 mg/kg) | % Suppression vs. Vehicle (mouse TLR7; 6 h, 100 mg/kg) | % Suppression vs. Vehicle (mouse TLR7; 19 h, 11 mg/kg) | % Suppression vs. Vehicle (mouse TLR7; 19 h, 33 mg/kg) | % Suppression vs. Vehicle (mouse TLR7; 19 h, 100 mg/kg) | IC50 (Mouse Splenocytes; Mus musculus, Splenocyte) | IC50 (Human TLR7/8) | % Suppression vs. Vehicle (mouse TLR7; 3 h, 100 mg/kg) | % Suppression vs. Vehicle (mouse TLR7; 13 h, 33 mg/kg) | % Suppression vs. Vehicle (mouse TLR7; 13 h, 100 mg/kg) | IC50 (Mouse Splenocytes) | % Suppression vs. Vehicle (mouse TLR7; 3 h, 33 mg/kg) | % Suppression vs. Vehicle (mouse TLR7; 13 h, 300 mg/kg) | % Suppression vs. Vehicle (mouse TLR7; 24 h, 33 mg/kg) | % Suppression vs. Vehicle (mouse TLR7; 24 h, 100 mg/kg) | % Suppression vs. Vehicle (mouse TLR7; 24 h, 300 mg/kg)
CC1CN(c2ccc(C#N)c3ncccc23)CC(CN2CCNCC2C)O1 (stereo not shown) [ER-887268] | 80% | 98% | 99% | 25% | 63% | 95% | 2120 nM | 5 nM | – | – | – | – | – | – | – | – | –
CC1CN(c2ccc(C#N)c3ncccc23)CC(CN2CCC(N3CCOCC3)CC2)O1 (stereo not shown) [ER-890093] | – | 92% | 95% | – | – | – | 88 nM | 22 nM | 92% | 98% | 100% | – | – | – | – | – | –
C[C@@H]1CN(c2ccc(C#N)c3ncccc23)C[C@H](CN2CCC(N3CCCC3)CC2)O1 [ER-888480] | 85% | 100% | 100% | 63% | 89% | 98% | – | 1 nM | – | – | – | 87 nM | – | – | – | – | –
CC1CN(c2ccc(C#N)c3ncccc23)CC(CN2CC(N3CCCC3)C2)O1 (stereo not shown) [ER-889469] | – | 100% | 100% | – | – | 73% | 97 nM | 13 nM | 100% | – | – | – | 100% | – | – | – | –
CC1CN(c2ccc(C#N)c3ncccc23)CC(CN2CC(N3CCCCC3)C2)O1 (stereo not shown) [ER-889470] | – | 96% | 100% | – | – | 78% | 152 nM | 12 nM | 98% | – | – | – | 100% | – | – | – | –
CCNC(=O)C1CCN(CC2CN(c3ccc(C#N)c4ncccc34)CC(C)O2)CC1 (stereo not shown) [ER-895204] | – | 98% | – | – | – | – | 51 nM | 23 nM | – | 22% | 43% | – | – | 99% | 39% | 39% | 78%
